The values that follow come from patent US20220072022A1, “ANTI-AGING AGENT OR LIFE-EXTENDING AGENT” (StaGen Co., Ltd., priority 2019, published 2022).

The subject of assay [1] is mitochondria of the muscle of C. elegans (N2). The experiment in a line: Effect of febuxostat on mitochondrial morphology in nematode muscle, electron microscopy (Example 3). The assay is classed as in vivo. The note with it: cultured 18 days in the presence of 20 μg/mL of febuxostat, compared with FBX(−), FIG. 5. As for the experimental part: The effect of febuxostat on lifespan was examined using a wild type strain (N2, Bristrol) of C. elegans as a nematode. In addition, mitochondria of the nematode cultured in the absence and presence of febuxostat were compared under electron microscopy.
On the 18th day of culturing, nematodes were fixed by the following method. An M9 buffer comprising 8% ethanol was dropped on a slide glass, and the nematodes were placed therein and allowed to stand until the nematodes stopped moving (about 5 minutes). Next, a fixing solution was placed on another slide glass, and the nematodes that had stopped moving were transferred to the fixing solution. The fixing solution comprises 2% paraformaldehyde+2% glutaraldehyde/0.1M phosphate buffer (pH 7.4), and was adjusted prior to use.
Subsequently, a 22 G injection needle was used to cut the nematodes in the following procedure.
First, the cranial side was cut from the pharynx, and then amputation was performed around Vulva. In this experiment, in order to observe the mitochondria of the muscle behind Vulva with an electron microscope, only the caudal side was collected and placed in an Eppendorf tube comprising a fixing solution (4° C.)
Observation with an electron microscope was carried out by requesting the Hanaichi UltraStructure Research Institute (Okazaki City, Aichi Prefecture) using an electron microscope HITACHI H-7600 (100 kV).

The test system of assay [2] is C. elegans daf-16 gene variant strain (mu86). The experiment in a line: Extension of C. elegans (nematode) lifespan by febuxostat, daf-16 variant strain (Example 1). The assay is classed as in vivo. On the procedure:
(§1) Extension of lifespan by febuxostat was examined using a wild type strain (N2, Bristrol) and a daf-16 gene (nematode ortholog of human transcription factor FOXO; a typical example of shortened lifespan in nematode variant due to a transcription factor that is suppressed by insulin signals) variant strain (mu86). Both strains were bred at 20° C.
(§2) In order to keep the developmental stage of the strains used for lifespan measurement constant, it was waited until food (Escherichia coli) was exhausted and growth of first instar larvae stopped. The nematode was cut and planted together with agar in a petri dish with food.
(§3) Ampicillin (100 μg/ml) was added to a 6 cm NGM plate (standard medium for nematode culture) to inhibit the growth of the food Escherichia coli strain and its associated metabolism, and OP50 (the food Escherichia coli strain) and FBX were added ([…]).
(§4) When the cut and planted nematodes became adults, they were washed out of the petri dish using M9 buffer and collected. The nematodes were suspended in Eppendorf tubes. An equal amount of bleach solution (a mixture of 4N NaOH, hypochlorous acid solution, and M9 buffer at a ratio of 2:3:5) to the nematode suspension was added and mixed. […]
(§5) Life or death was determined for each individual every other day, and the data was recorded. […]
(§6) The lifespan tracking was completed when it was determined that all nematodes had died.

The test system of assay [3] is C. elegans wild type strain (N2, Bristrol). Kind of assay: Effect of febuxostat on nematode lifespan, UV-killed Escherichia coli plus kanamycin (Example 3). The assay is classed as in vivo. Conditions: N2, febuxostat 5, 10, 20 μg/mL, FIG. 4. As for the experimental part: The effect of febuxostat on lifespan was examined using a wild type strain (N2, Bristrol) of C. elegans as a nematode. In addition, mitochondria of the nematode cultured in the absence and presence of febuxostat were compared under electron microscopy. The culturing method and culturing conditions for nematodes (N2) were almost the same as those in Example 1 except for the method for treating the food added to the medium. Generally, Escherichia coli is added to the NGM plate as food for nematodes; however, when Escherichia coli grows, it may affect metabolites, etc. Therefore, a method of adding the antibiotic ampicillin to stop the growth of Escherichia coli is performed. However, it cannot be completely denied that the presence of ampicillin in the NGM plate had some effect. Therefore, instead of adding ampicillin, Escherichia coli was killed by being irradiated with ultraviolet rays, and kanamycin was further added. In this way, Escherichia coli as food was treated differently from Example 1, and it was checked whether the same experimental results as in Example 1 could be obtained. The concentration of febuxostat added to the NGM plate was 5, 10, 20 μg/mL.

Assay [4] shares this test system. The experiment in a line: Extension of C. elegans (nematode) lifespan by febuxostat, wild type strain (Example 1). It is filed as in vivo. Conditions: wild type strain N2, febuxostat 10 mg/ml, 20° C., FIG. 2. As for the experimental part:
as §1, §2, §3, §4, §5, §6

A further assay relates to C. elegans. Conditions: Non-Patent Documents 13 to 16; cited from earlier work.

As for `Cc1nc(-c2ccc(OCC(C)C)c(C#N)c2)sc1C(=O)O` [febuxostat], the “morphology of mitochondria in the muscle” value in assay [1] is listed as “morphology of mitochondria is maintained almost normally”. In addition, the “lifespan compared with the wild type strain” value in assay [2] (daf-16 gene variant strain (mu86) with febuxostat) was “did not reach the same length of lifespan as that of the wild type strain”. Besides, the lifespan entry in assay [2] (daf-16 gene variant strain (mu86), febuxostat 10 mg/ml, 20° C., FIG. 3) was “showed an extension of lifespan”; in assay [4], “showed an extension of lifespan”. In assay [3], the lifespan of nematodes result was “lifespan of nematodes is extended”.
Regarding `CN(C)C(=N)N=C(N)N` [metformin], the “lifespan in C. elegans” value with C. elegans is on record as “prolongs the lifespan”.
